Experimental data reported in patent publication US20100190751A1, “NOVEL COMBINATION OF NERAMEXANE FOR TREATMENT OF NERORDEGENERATIE DISORDERS” (MERZ PHARMA GmbH & CO. KGaA, priority 2007, published 2010).

What was measured:
[1] = test system: SOD1(G93A) transgenic mouse model of ALS; assay: Motor performance in the running wheel, SOD1(G93A) ALS mouse model; assay type: in vivo; conditions: for Disease Progression (Rev's per 12 hours/day) / Half Maximum Performance / Presymptomatic Performance (Rev's per 12 hours): both gender; for Half Maximum Performance, Difference: versus vehicle control 106.1; for Presymptomatic Performance, Difference (rp 12 hours): versus vehicle control 19,518; for Disease Progression, Difference: versus vehicle control −17.862
Procedure: Drug treatment starts at day 45.
Memantine is supplied by MERZ pharmaceuticals. […] Drugs are dissolved in drinking water. […] Memantine is administered twice a day subcutaneously.
Consumption of drinking water is checked randomly.
4. Motor Performance in the running wheel

[2] = test system: SOD1(G93A) transgenic mouse model of ALS; conditions: both gender; for Age of Disease Onset, Mean age / Age of First Paresis, Mean age / Disease Endstage - Survival, Mean age: treatment from day 45; for Age of Disease Onset, Mean age: riluzole 35 mg/kg day and neramexane (dosage adapted to gender, 50 male/150 female) in drinking water, memantine 20 mg/kg day s.c.; for Age of First Paresis, Mean age / Disease Endstage - Survival, Mean age: same doses as Table 1; for Age of Disease Onset, Difference compared to control: versus vehicle control mean 106.6; for Age of First Paresis, Difference compared to control: versus vehicle control mean 119.7; for Disease Endstage - Survival, Difference compared to control: versus vehicle control mean […]
[3] = test system: SOD1(G93A) ALS-mouse model; conditions: Wang et al. 2005; cited from earlier work

SMILES	Disease Progression (Rev's per 12 hours/day) [1] [Rev's per 12 hours/day]	Half Maximum Performance [1] [days]	Presymptomatic Performance (Rev's per 12 hours) [1]	Half Maximum Performance, Difference [1] [days]	Presymptomatic Performance, Difference (rp 12 hours) [1]	Disease Progression, Difference [1]	Age of Disease Onset, Median age [2] [days]	Age of First Paresis, Median age [2] [days]	Disease Endstage - Survival, Median age [2] [days]	Age of Disease Onset, Mean age [2] [days]	Age of First Paresis, Mean age [2] [days]	Disease Endstage - Survival, Mean age [2] [days]	Age of Disease Onset, Difference compared to control [2] [days]	Age of First Paresis, Difference compared to control [2] [days]	Disease Endstage - Survival, Difference compared to control [2] [days]	Effects regarding disease progression and survival [3]
CC12CC3CC(C)(C1)CC(N)(C3)C2 [Memantine]	−22.528	110.5	10,784 Rev's per 12 hours	4.4	−8,734 rp 12 hours	−4.666	107.5	123.0	134.0	108.5	123.7	134.4	1.9	4.0	5.1	positive effects
Nc1nc2ccc(OC(F)(F)F)cc2s1 [Riluzole, 2-amino-6-trifluromethoxybenzothiazole]	−14.015		20,565 Rev's per 12 hours		1,047 rp 12 hours	3.847	105.0	119.0		106.3	120.0		-0.3	0.3		
CC1(C)CC(C)(C)CC(C)(N)C1 [Neramexane, 1-amino-1,3,3,5,5-pentamethylcyclohexane]	−16.108	109.2	21,096 Rev's per 12 hours	3.1	1,578 rp 12 hours	1.754	107.0	124.0	135.0	107.8	123.7	135.1	1.2	4.0	5.8	
